Measurements taken from patent US20260070924A1, “INDAZOLE MACROCYCLES AND THEIR USE” (BLOSSOMHILL THERAPEUTICS, INC., priority 2022, published 2026).

What was measured:
Assay in all cases: Cell proliferation panel (CellTiter-Glo 2.0, 5 days)
Assay type in all cases: cell-based
[1] = system: PC-9; details: Lung adenocarcinoma NSCLC
Method: (§1) Cell proliferation assay was carried out in a panel of 108 cell lines. 1000 (attached cells) or 3000 (suspension cells) cells/100 μl per well were seeded in 96 well black plate with a clear bottom (Corning #3904). Compounds were added using Tecan D300e Digital Dispenser in 1:3 titration for 9 doses. Plates were incubated for 5 days at 37° C. and 5% CO2. Cell proliferation was measured using CellTiter-Glo 2.0 luciferase-based ATP detection assay (Promega, Madison, WI) at 50 μl per well following the manufacturer's protocol. Plates were then read on a TECAN Sparks multimode microplate reader. Data was analyzed using GraphPad Prism 9 (GraphPad Software, San Diego, CA) to obtain IC50 values. IC50 values were determined using Prism software (GraphPad Software, San Diego, CA).

[2] = system: SUIT-2; details: Pancreatic tubular adenocarcinoma
Method: as §1

[3] = system: HCC1806; details: Breast carcinoma, TNBC
Method: as §1

[4] = system: SW1990; details: Pancreatic adenocarcinoma
Method: as §1

[5] = system: Ovcar3; details: Ovarian adenocarcinoma
Method: as §1

[6] = system: PANC1; details: Pancreatic ductal epithelioid carcinoma
Method: as §1

[7] = system: Kelly; details: Neuroblastoma
Method: as §1

[8] = system: H1792; details: Lung adenocarcinoma NSCLC
Method: as §1

[9] = system: IMR-32; details: Neuroblastoma
Method: as §1

[10] = system: H441; details: Lung adenocarcinoma NSCLC
Method: as §1

[11] = system: DLD1; details: Colorectal adenocarcinoma
Method: as §1

[12] = system: HCC38; details: Mammary gland ductal carcinoma
Method: as §1

[13] = system: ZR-75-1; details: Mammary gland ductal carcinoma
Method: as §1

[14] = system: KP-N-RT-BM-1; details: Neuroblastoma
Method: as §1

[15] = system: KASUMI-1; details: Acute myeloblastic leukemia
Method: as §1

[16] = system: H1930; details: Lung carcinoma small cell lung cancer
Method: as §1

[17] = system: CT26; details: Murine colon carcinoma fibroblasts
Method: as §1

[18] = system: KATOIII; details: Gastric carcinoma
Method: as §1

[19] = system: BJ; details: Skin fibroblast
Method: as §1

[20] = system: Toledo; details: Diffuse Large B Cell Lymphoma
Method: as §1

[21] = system: AGS; details: Gastric adenocarcinoma
Method: as §1

[22] = system: UCSD-AML1; details: Acute myeloid leukemia
Method: as §1

[23] = system: THP-1; details: Acute monocytic leukemia
Method: as §1

[24] = system: SK-N-AS; details: Neuroblastoma
Method: as §1

[25] = system: HPAC; details: Pancreatic carcinoma
Method: as §1

[26] = system: MOLM14; details: Acute myeloid leukemia
Method: as §1

[27] = system: KCL22S; details: Chronic myeloid leukemia at blast crisis
Method: as §1

[28] = system: 22RV1; details: Prostate carcinoma
Method: as §1

[29] = system: 786-O; details: Renal cell adenocarcinoma
Method: as §1

[30] = system: H2087; details: Lung adenocarcinoma NSCLC
Method: as §1

[31] = system: N87; details: Gastric carcinoma
Method: as §1

[32] = system: HCC78; details: Non-small cell lung carcinoma
Method: as §1

[33] = system: KASUMI-3; details: Acute myeloblastic leukemia
Method: as §1

[34] = system: TF-1; details: Erythroleukemia
Method: as §1

[35] = system: KG-1; details: Acute myelogenous leukemia
Method: as §1

[36] = system: COLO320; details: Colorectal adenocarcinoma
Method: as §1

[37] = system: COR-L23; details: Large cell lung carcinoma
Method: as §1

[38] = system: H526; details: Small cell lung cancer
Method: as §1

[39] = system: A-498; details: Kidney carcinoma
Method: as §1

[40] = system: KCL22R; details: Chronic Myelogenous Leukemia
Method: as §1

[41] = system: AU565; details: Breast adenocarcinoma
Method: as §1

[42] = system: HCC827; details: Lung adenocarcinoma NSCLC
Method: as §1

[43] = system: H1688; details: Small cell lung carcinoma
Method: as §1

[44] = system: U87 MG; details: Glioblastoma
Method: as §1

[45] = system: MOLM13; details: Acute myeloid leukemia
Method: as §1

[46] = system: PA-1; details: Ovary Teratocarcinoma
Method: as §1

## CCc1nn(C)c2c1/C=C/c1n[nH]c3ccc(cc13)-c1cnn(C)c1OCCN(C)C2=O [Ex. 6, (17E)-16-ethyl-8,12,14-trimethyl-2,11,12,14-tetrahydro-8H-3,5-ethenotripyrazolo[3,4-f:3′,4′-j:4″,3″-n][1,4]oxazacyclopentadecin-13(10H)-one]
[1]
  IC50: 164 nM
[2]
  IC50: 393 nM
[3]
  IC50: 85.9 nM
[4]
  IC50: 104 nM
[5]
  IC50: 70.7 nM
[6]
  IC50: 213 nM
[7]
  IC50: 51.5 nM
[8]
  IC50: 121 nM
[9]
  IC50: 11.2 nM
[10]
  IC50: 91.1 nM
[11]
  IC50: 48.7 nM
[12]
  IC50: 161 nM
[13]
  IC50: 144 nM
[14]
  IC50: 15.1 nM
[15]
  IC50: 14 nM
[16]
  IC50: 181 nM
[17]
  IC50: 215 nM
[18]
  IC50: 158 nM
[19]
  IC50: 516 nM
[20]
  IC50: 34.6 nM
[21]
  IC50: 87.9 nM
[22]
  IC50: 15.5 nM
[23]
  IC50: 107 nM
[24]
  IC50: 77.2 nM
[25]
  IC50: 79.1 nM
[26]
  IC50: 2.26 nM
[27]
  IC50: 61.2 nM
[28]
  IC50: 73.2 nM
[29]
  IC50: 138 nM
[30]
  IC50: 141 nM
[31]
  IC50: 20.8 nM
[32]
  IC50: 42.7 nM
[33]
  IC50: 43.3 nM
[34]
  IC50: 57.6 nM
[35]
  IC50: 153 nM
[36]
  IC50: 85.2 nM
[37]
  IC50: 98.4 nM
[38]
  IC50: 75.5 nM
[39]
  IC50: 169 nM
[40]
  IC50: 64.8 nM
[41]
  IC50: 25.5 nM
[42]
  IC50: 70.9 nM
[43]
  IC50: 116 nM
[44]
  IC50: 89.2 nM
[45]
  IC50: 2.39 nM
[46]
  IC50: 48 nM
